# Assay results published in US20250034171A1, “IMIDAZOPYRIDINE AMIDES AND RELATED COMPOUNDS FOR USE IN THE TREATMENT OF BACTERIAL INFECTIONS” (priority 2021, published 2025).
# Like-named read-outs stand apart in the source and are kept apart here.
# How the values were obtained:
# [1] = Metabolic stability in liver microsomes (intrinsic clearance); assay type: in vitro ADME
# Method: The test compound was incubated under the generic condition (0.5 mg/ml microsomal protein, 1 mM NADPH, 1 mM MgCl2, and 0.1 M phosphate buffer, pH 7.4, 37° C.) at a defined substrate concentration (typically 1 μM) in liver microsomes of selected species across a time course (typically 0, 5, 10, 20, 40 and 60 minutes) at Cyprotex (Cheshire, UK). The liver microsomes, buffer and test compound will be pre-incubated for 5 minutes. The addition of the co-factor NADPH will initiate the reaction and the reaction was terminated by addition of acetonitrile. The samples were centrifuged prior to analysis by LC-MS/MS analysis. The relative amount of parent compound remaining in the active incubations vs. the control incubations (t=0 mins) for each compound was measured by peak area comparison. The in vitro metabolic half-life (t1/2) was calculated using the slope of the log-linear regression from the percentage parent compound remaining versus time relationship (κ), The in vitro intrinsic clearance (Cl^int) (μl/min/mg microsomal protein) was calculated using the in vitro metabolic half-life, incubation volume and the weight of microsomal protein in the incubation.
# [2] = HTChem stab assay (chemical stability in buffer pH2, pH4 and pH7 vs DMSO reference); assay type: physicochemical
# Method: HTChem stab assay was used to assess the chemical stability of the compounds. 72 h stirring at rt in a buffer pH2, pH4 and pH7 vs a reference DMSO solution. HTChem stab assay is based on the handbook of Pharmaceutical Stress Testing, Predicting Drug Degradation, second edition, authors Baertschi, Alsante, Reed ISBN 978-143980179-6.
# Compounds were plated (1 μl 10 mM DMSO stock in 96 well plate (DMSO control+3 pH conditions), one plate per condition).
# 200 μL of respectively DMSO, Buffer/DMSO mix pH2, Buffer/DMSO mix pH4 and Buffer/DMSO mix pH7 was added.
# After 72 h shaking (300 rpm) at room temperature the samples were analysed by LC/UV/MS. Chromatograms of samples (stability conditions) were compared with the chromatograms of control sample (DMSO). Extra peaks were flagged and identified by mass spectrometry. Sample purity (reference included) were reported.
# • pH3 buffer: For 11; weigh 4.14 g NaH2PO4·H2O, add 600 ml H2O, add H3PO4 to pH3, add H2O to 1000 ml. Filter over 0.2 μm and store at 4° C. Expires after 30 days. • pH6 buffer: For 1 l; weigh 4.14 g NaH2PO4·H2O, add 600 ml H2O, add 1N NaOH to pH6, add H2O to 1000 ml. Filter over […] and store at 4° C. Expires after 30 days.
# • pH2 Buffer/DMSO (StabSolvent): mix 2 parts of HCl 0.1N with 1 part of DMSO • pH4 Buffer/DMSO (StabSolvent): mix 2 parts of buffer pH3 with 1 part of DMSO • pH7 Buffer/DMSO (StabSolvent): mix 2 parts of buffer pH6 with 1 part of DMSO measure pH prior to use.
# Instrument: Acquity UPLC; Column: Acquity HSS T3, 50 mm length×2.1 mm i.d., 1.8 μm particle size. Detectors: PDA (250-350 nm) and SQD2 (90-1500m/z). Mobile phase A: 0.1% Formic acid in water; Mobile phase B: 0.1% Formic acid in Acetonitrile.
# Injection volume: 5 μL, flow rate 0.6 mL/min.
# Data processing including peak integration and identification was done with Waters OpenLynx software.
# [3] = test system: Mycobacterium tuberculosis strain H37Rv; assay: Test 2: MIC determination against M. tuberculosis, resazurin fluorescence; assay type: cell-based; conditions: Test 2, M. tuberculosis H37Rv; for MIC90: read-out: Bacterial activity MIC90; for IC50: read-out: Bacterial activity pMIC50 (converted)
# [4] = test system: Salmonella typhimurium Ames II Mixed Strains (TA7001-TA7006) and TA98; assay: Genotoxicity assay (AmesIIb mutagenicity test); assay type: cell-based; further: key: an AmesIIb score of 1 shows no genotoxicity signals
# Text: The aim is to evaluate compounds (and/or their metabolites) for their ability to induce reverse mutations in a gene of histidine-requiring Salmonella typhimurium strains to produce histidine-independent strains of these bacteria, in the absence and in the presence of a mammalian metabolic activation system.
# Point mutations were made in the histidine (His) operon in Salmonella typhimurium, rendering the bacteria incapable of producing histidine. These single base substitutions are positioned at strategic points within the His gene, resulting in his-organisms that cannot grow unless histidine is supplied. When a mutagenic event occurs, base substitutions within the His gene then cause the reversion of the his-Ames II™ strains to His.
# A chemical's mutagenic potential is assessed by exposing these his-organisms to varying concentrations of chemical and selecting for the reversion event. Medium lacking histidine is used for this selection which allows only those cells that have undergone the his- to His reversion to survive and grow.
# The assay may be performed using a kit and instructions from Xenometric. The two strains provided in the Xenometric kit are the Ames II™ Mixed Strains and TA98. The Ames II™ Mixed Strains contains an equimolar mixture of the Ames II™ TA7001-TA7006 strains. Individually, these strains are designed to revert by only one specific base-pair substitution out of six possible changes. Thus, when mixed, all six base substitution mutations can be represented in one culture. This kit also contains TA98 for the detection of frameshift mutations.
# [5] = human, microsomes, pH 7.4, Metabolic Stability Half life (human, min.)
# [6] = human, microsomes, pH 7.4, human liver microsomes, read-out: Metabolic Stability (liver microsome intrinsic clearance) Clearance (human, μl/min./mg protein)
# [7] = mouse, microsomes, pH 7.4, Metabolic Stability Half life (mouse, min.)
# [8] = mouse, microsomes, pH 7.4, mouse liver microsomes, read-out: Metabolic Stability (liver microsome intrinsic clearance) Clearance (mouse, μl/min./mg protein)
# [9] = Mycobacterium tuberculosis, H37RV
SMILES,"half-life at 1 µM [1, 7] [h]","microsomal CLint at 1 µM [1, 8] [µL/min/mg]","MIC90 [3, 9] [µM]","IC50 [3, 9] [pM]",GeneTox AmesIIb Score ([4]; Salmonella typhimurium),also measured
CCc1nc2cc(F)ccn2c1C(=O)NCc1ccc(-c2nc3n(n2)CCC(C(F)(F)F)C3)cc1 (racemic) [Compound 7ab],–,–,–,–,–,"Metabolic Stability (liver microsome intrinsic clearance) Clearance (mouse, μl/min./mg protein) ([1]; mouse liver microsomes): 20.5 μl/min./mg protein; Metabolic Stability Half life (mouse, min.) ([1]; mouse liver microsomes): 1.13 h; Chemical stability data, Buffer pH2 ([2]; buffer pH2/DMSO, 72 h stirring at rt): 100%; Chemical stability data, Buffer pH4 ([2]; buffer pH4/DMSO, 72 h stirring at rt): 100%; Chemical stability data, Buffer pH7 ([2]; buffer pH7/DMSO, 72 h stirring at rt): 100%; Chemical stability data, Vehicle DMSO ([2]; reference DMSO solution, 72 h stirring at rt): 100%; Bacterial activity pMIC50 [3]: 8.362; MIC90 [3]: 0.014 µM"
"CCc1nc2ncc(C)cn2c1C(=O)NCc1ccc(-c2nc3n(n2)CCC(C(F)(F)F)C3)cc1 (single isomer, unassigned) [Compound 1a]",> 3,< 7.7,0.009,3130,–,"half-life at 1 µM [1, 5]: > 3 h; microsomal CLint at 1 µM [1, 6]: < 7.7 µL/min/mg; Chemical stability data, Vehicle DMSO ([2]; 72 h, 50 µM): 100%; Chemical stability data, Buffer pH2 ([2]; 72 h, 50 µM, pH 2): 100%; Chemical stability data, Buffer pH4 ([2]; 72 h, 50 µM, pH 4): 100%; Chemical stability data, Buffer pH7 ([2]; 72 h, 50 µM, pH 7): 100%"
"O=C(NCc1ccc(-c2nc3n(n2)CCC(C(F)(F)F)C3)cc1)c1c(C(F)(F)F)nc2ncccn12 (single isomer, unassigned) [Compound 2a]",–,–,–,–,–,"Metabolic Stability (liver microsome intrinsic clearance) Clearance (human, μl/min./mg protein) ([1]; human, microsomes): <7.7 μl/min./mg protein; Metabolic Stability Half life (human, min.) ([1]; human, microsomes): >3 h; Metabolic Stability (liver microsome intrinsic clearance) Clearance (mouse, μl/min./mg protein) ([1]; mouse, microsomes): 11.4 μl/min./mg protein; Metabolic Stability Half life (mouse, min.) ([1]; mouse, microsomes): 2.02 h; Bacterial activity pMIC50 [3]: 7.648; MIC90 [3]: 0.086 µM; GeneTox AmesIIb Score [4]: 1"
"O=C(NCc1ccc(-c2nc3n(n2)CCC(C(F)(F)F)C3)cc1)c1c(C(F)(F)F)nc2ncccn12 (single isomer, unassigned) [Compound 2b]",–,–,–,–,–,"Metabolic Stability (liver microsome intrinsic clearance) Clearance (human, μl/min./mg protein) ([1]; human, microsomes): <7.7 μl/min./mg protein; Metabolic Stability Half life (human, min.) ([1]; human, microsomes): >3 h; Metabolic Stability (liver microsome intrinsic clearance) Clearance (mouse, μl/min./mg protein) ([1]; mouse, microsomes): 12.3 μl/min./mg protein; Metabolic Stability Half life (mouse, min.) ([1]; mouse, microsomes): 1.87 h; Bacterial activity pMIC50 [3]: 7.502; MIC90 [3]: 0.098 µM; GeneTox AmesIIb Score [4]: 1"
"CCc1nc2ncc(C)cn2c1C(=O)NCc1ccc(-c2cn3c(n2)CC(C(F)(F)F)CC3)cc1 (single isomer, unassigned) [Compound 3b]",–,–,–,–,–,"Metabolic Stability (liver microsome intrinsic clearance) Clearance (human, μl/min./mg protein) ([1]; human, microsomes): 26.1 μl/min./mg protein; Metabolic Stability Half life (human, min.) ([1]; human, microsomes): 0.887 h; Metabolic Stability (liver microsome intrinsic clearance) Clearance (mouse, μl/min./mg protein) ([1]; mouse, microsomes): 23.8 μl/min./mg protein; Metabolic Stability Half life (mouse, min.) ([1]; mouse, microsomes): 0.972 h; Bacterial activity pMIC50 [3]: 8.483; MIC90 [3]: 0.010 µM; GeneTox AmesIIb Score [4]: 1"
CCc1nc2nc(C)ccn2c1C(=O)NCc1ccc(-c2nc3n(n2)CCC(C(F)(F)F)C3)cc1 (centres unmarked) [Compound 5b],–,–,–,–,–,"Metabolic Stability (liver microsome intrinsic clearance) Clearance (mouse, μl/min./mg protein) ([1]; mouse, microsomes): <7.7 μl/min./mg protein; Metabolic Stability Half life (mouse, min.) ([1]; mouse, microsomes): >3 h; Bacterial activity pMIC50 [3]: 7.873; MIC90 [3]: 0.044 µM; GeneTox AmesIIb Score [4]: 1"
CCc1nc2ncc(C)cn2c1C(=O)NCc1ccc(-c2nc3n(n2)CCC(C(F)(F)F)C3)c(C)n1 (centres unmarked) [Compound 37],> 2.8,< 7.7,0.0035,12600,1,–
CCc1nc2ncc(C)cn2c1C(=O)NCc1cc(C)c(-c2nc3n(n2)CCC(C(F)(F)F)C3)cn1 (centres unmarked) [Compound 38],> 3,< 7.7,0.052,17000,1,–
CCc1nc2ncc(C)cn2c1C(=O)NCc1ccc(-c2nc3n(n2)CCC(C(F)(F)F)C3)cn1 (centres unmarked) [Compound 39],> 3,< 7.7,0.16,49000,1,–
CCc1nc2ccc(F)cn2c1C(=O)NCc1ccc(-c2nc3n(n2)CC[C@H](C(F)(F)F)C3)cc1 [Compound 50],1.97,11.7,0.11,28200,1,–
[2H]C([2H])([2H])c1cnc2nc(CC)c(C(=O)NCc3ccc(-c4nc5n(n4)CC[C@H](C(F)(F)F)C5)cc3)n2c1 [Compound 51],> 3,< 7.7,0.008,3160,1,–
CCc1cnc2nc(CC)c(C(=O)NCc3ccc(-c4nc5n(n4)CC[C@@H](C(F)(F)F)C5)cc3)n2c1 [Compound 59],0.39,59.4,0.061,17800,1,"half-life at 1 µM [1, 5]: 0.0667 h; microsomal CLint at 1 µM [1, 6]: 347 µL/min/mg"
CCc1cnc2nc(CC)c(C(=O)NCc3ccc(-c4nc5n(n4)CC[C@H](C(F)(F)F)C5)cc3)n2c1 [Compound 62],0.4,57.8,0.033,11000,1,"half-life at 1 µM [1, 5]: 0.0783 h; microsomal CLint at 1 µM [1, 6]: 294 µL/min/mg"
CCc1nc2ncc(C)cn2c1C(=O)NCc1ccc(-c2cn3c(n2)CC(C)CC3)cc1 (centres unmarked) [Compound 89],> 3,< 7.7,0.046,14100,1,–
CCc1nc2nc(C)ccn2c1C(=O)NCc1ccc(-c2cn3c(n2)CC(C)CC3)cc1 (centres unmarked) [Compound 91],> 3,< 7.7,0.48,191000,1,–
CCc1nc2ncc(C)cn2c1C(=O)NCc1ccc(-c2cc3n(n2)CCCC3)cc1 [Compound 95],0.978,0.012,0.011,3630,1,"half-life at 1 µM [1, 5]: > 9.33 h; microsomal CLint at 1 µM [1, 6]: < 1.2 µL/min/mg"
CCc1nc2ncc(C)cn2c1C(=O)NCc1ccc(-c2nc3n(n2)CCC(COC)C3)cc1 (centres unmarked) [Compound 102],> 3,< 7.7,0.058,25700,1,–
CCc1nc2ncc(C)cn2c1C(=O)NCc1ccc(-c2nc3n(n2)CCC(C(C)(F)F)C3)c(F)c1 (centres unmarked) [Compound 106],1.92,12.1,0.03,12000,1,–
